Consider nine molecules from PubChem BioAssay (NCI).

Several values for one entry are separate records, joined by “and”; a condition that tells them apart may be missing. Equal entries are not always repeated.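 Step 1: Grow cells in 96-well plates. Step 2: Expose to compound for 48 hours at 5 concentrations. Step 3: Interpolate endpoints linearly; if unreached, use highest concentration. GI50: concentration for 50% inhibition of growth. TGI marks complete inhibition of growth.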

Some test systems named below: CAKI-1 renal; EKVX NSCLC; HL-60(TB) leukemia; M14 melanoma; MCF7 breast; OVCAR-5 ovarian; RXF 393 renal; SNB-75 CNS; SR leukemia; SW-620 colon.
Holding throughout (assay): NCI tumour cell line growth inhibition, 48 h

Take `Oc1ccc(O)c2c1C1(Cl)C(Cl)=C(Cl)C2(Cl)C1(Cl)Cl`: the GI50 in the assay with CAKI-1 renal was 2.44 µM; in the assay on EKVX NSCLC, 1.47 µM; with HL-60(TB) leukemia, 3.19 µM; in the assay on M14 melanoma, 3.03 µM; in the assay on MCF7 breast, 6.4 µM; with OVCAR-5 ovarian, 12.6 µM. The GI50 was 3.31 µM with RXF 393 renal, 1.52 µM in the assay on SNB-75 CNS, 2.65 µM in the assay with SR leukemia and 4.89 µM in the assay with SW-620 colon. Besides, the TGI with CAKI-1 renal was 8.31 µM; with EKVX NSCLC, 7.45 µM; with HL-60(TB) leukemia, 12.1 µM; in the assay with M14 melanoma, 12 µM; in the assay with MCF7 breast, above 100 µM; with OVCAR-5 ovarian, 33.8 µM. In addition, the TGI with RXF 393 renal was found to be 11.2 µM; in the assay with SNB-75 CNS, 6.84 µM; with SR leukemia it was 24.7 µM; in the assay with SW-620 colon it was 16.7 µM.

Regarding `Cc1cc(Cl)ccc1Nc1nc(C(F)(F)F)ccc1C(=O)Nc1cccc(C(F)(F)F)c1`, the GI50 in the assay on CAKI-1 renal was 3.61 µM; with EKVX NSCLC it was 1.85 µM; in the assay with HL-60(TB) leukemia it was 2.06 µM; with MCF7 breast, 2.28 µM; in the assay with OVCAR-5 ovarian, 4.75 µM; in the assay on RXF 393 renal, 3.58 µM. Moreover, the GI50 was 3.41 µM in the assay with SNB-75 CNS, 2.56 µM in the assay on SR leukemia and 4.23 µM in the assay with SW-620 colon. Also, the TGI in the assay on CAKI-1 renal is 17.8 µM; with EKVX NSCLC it was 11.1 µM; in the assay with HL-60(TB) leukemia it was 4.67 µM; in the assay with MCF7 breast, 7.71 µM; in the assay on OVCAR-5 ovarian it was 19.3 µM; with RXF 393 renal, 27.5 µM. Further, the TGI is 11.5 µM in the assay on SNB-75 CNS, 8.28 µM with SR leukemia and 16.6 µM in the assay on SW-620 colon.

For `NCCSC(C[N+](=O)[O-])c1ccccc1Cl` (centres undefined), the GI50 is 9.88 µM in the assay with CAKI-1 renal; 16.9 µM in the assay on EKVX NSCLC; 3.38 µM with HL-60(TB) leukemia; 2.14 µM with M14 melanoma; 1.13 µM in the assay with MCF7 breast; 4.66 µM in the assay on OVCAR-5 ovarian. Also, the GI50 in the assay with RXF 393 renal was 2.27 µM; with SNB-75 CNS, 4.22 µM; in the assay with SR leukemia it was 3.05 µM; in the assay on SW-620 colon it was 1.82 µM. For the same molecule, the TGI is 24.3 µM in the assay on CAKI-1 renal; 41.6 µM in the assay with EKVX NSCLC; above 23.3 µM in the assay on HL-60(TB) leukemia; 6.01 µM with M14 melanoma; 3.2 µM in the assay with MCF7 breast; 10.4 µM in the assay on OVCAR-5 ovarian. Further, the TGI is 11.1 µM in the assay on RXF 393 renal, 16.9 µM with SNB-75 CNS, above 100 µM with SR leukemia and 4.05 µM with SW-620 colon.

On to `Cc1ccccc1NC(=O)c1cc2ccccc2cc1O`, for which the GI50 with CAKI-1 renal was 2.01 µM; with EKVX NSCLC, 2.36 µM; in the assay on HL-60(TB) leukemia, 2.5 µM; in the assay with M14 melanoma, 4.08 µM; with MCF7 breast, 3.46 µM; in the assay with OVCAR-5 ovarian it was 5.88 µM. Further, the GI50 with RXF 393 renal is 2.78 µM; in the assay on SNB-75 CNS, 2.43 µM; in the assay on SR leukemia, 4.84 µM; in the assay with SW-620 colon, 3.96 µM. Also, the TGI in the assay with CAKI-1 renal is 5.87 µM; in the assay with EKVX NSCLC it was 91.8 µM; in the assay with HL-60(TB) leukemia it was 7.34 µM; with M14 melanoma it was above 100 µM; with MCF7 breast, 37.1 µM; with OVCAR-5 ovarian, 85.6 µM. The TGI with RXF 393 renal is 7.23 µM; with SNB-75 CNS, 44.9 µM; in the assay on SR leukemia it was above 100 µM; in the assay on SW-620 colon, above 100 µM.

Turning to `O=C1C=C(OCCCl)C(=O)c2c(O)ccc(O)c21`, the GI50 is 1.75 µM in the assay with CAKI-1 renal; 0.23 µM with HL-60(TB) leukemia; 0.741 µM with M14 melanoma; 0.399 µM in the assay with MCF7 breast; 2.01 µM in the assay with OVCAR-5 ovarian; 2.1 µM in the assay with SNB-75 CNS. Besides, the GI50 in the assay with SW-620 colon was 0.296 µM and 1.56 µM. The TGI was 3.88 µM and 3.16 µM with CAKI-1 renal; 3.36 µM and 3.73 µM with EKVX NSCLC; 2.58 µM and 1.17 µM with HL-60(TB) leukemia; 0.32 µM and 2.19 µM in the assay on M14 melanoma; 0.472 µM and 1.75 µM with MCF7 breast; 2.98 µM and 3.56 µM with OVCAR-5 ovarian. The TGI in the assay with RXF 393 renal was 3.38 µM and 3.96 µM; with SNB-75 CNS it was 0.97 µM and 3.74 µM; in the assay on SR leukemia it was 3.22 µM; in the assay with SW-620 colon, 1.15 µM and 3.85 µM.

As for `Cn1c2ccccc2c2[nH]c3ccccc3c(=O)c21`, the TGI in the assay with CAKI-1 renal, in the assay on EKVX NSCLC, with HL-60(TB) leukemia, in the assay on M14 melanoma, in the assay on MCF7 breast and in the assay with OVCAR-5 ovarian was above 100 µM in each case. For the same molecule, the TGI with RXF 393 renal, with SNB-75 CNS, in the assay with SR leukemia and in the assay on SW-620 colon was above 100 µM throughout.

In the case of `Nc1cc(-c2ccccc2)n(C(=O)Nc2ccc(Oc3ccccc3)cc2)n1`, the GI50 was 28.9 µM with CAKI-1 renal; above 100 µM with EKVX NSCLC; 47.8 µM in the assay on HL-60(TB) leukemia; above 100 µM in the assay with M14 melanoma; 61.7 µM in the assay on MCF7 breast; 96.3 µM with OVCAR-5 ovarian. Further, the GI50 with RXF 393 renal was 23 µM; in the assay with SR leukemia, 22.2 µM; in the assay on SW-620 colon, above 100 µM. In addition, the TGI is 77.2 µM in the assay with CAKI-1 renal; above 100 µM in the assay on EKVX NSCLC; above 100 µM in the assay with HL-60(TB) leukemia; above 100 µM with M14 melanoma; above 100 µM with MCF7 breast; above 100 µM in the assay with OVCAR-5 ovarian. Also, the TGI in the assay on RXF 393 renal is 68.3 µM; in the assay with SNB-75 CNS, 3.04 µM; in the assay with SR leukemia, 43.5 µM; with SW-620 colon it was above 100 µM.

Regarding `CN(C)C(=S)SCC(N)=O`, the TGI with CAKI-1 renal, in the assay on EKVX NSCLC, with HL-60(TB) leukemia, in the assay with M14 melanoma, in the assay on MCF7 breast and with OVCAR-5 ovarian was above 100 µM throughout. In addition, the TGI in the assay on RXF 393 renal, in the assay with SNB-75 CNS, with SR leukemia and in the assay with SW-620 colon was above 100 µM each time.

In the case of `COc1ccc2c(c1)C=C1CSCC3=Cc4cc(OC)ccc4OC13O2`, the GI50 is 0.41 µM with CAKI-1 renal; 3.14 µM in the assay on EKVX NSCLC; 0.27 µM with HL-60(TB) leukemia; 0.323 µM with M14 melanoma; 0.313 µM in the assay on MCF7 breast; 0.757 µM with OVCAR-5 ovarian. The GI50 was 0.216 µM in the assay on RXF 393 renal, 0.183 µM with SNB-75 CNS, 0.164 µM in the assay with SR leukemia and 0.373 µM in the assay on SW-620 colon. Besides, the TGI in the assay on CAKI-1 renal was above 100 µM; in the assay on EKVX NSCLC, above 100 µM; in the assay on HL-60(TB) leukemia, 0.801 µM; in the assay with M14 melanoma, above 100 µM; in the assay with MCF7 breast, above 100 µM; in the assay on OVCAR-5 ovarian, above 100 µM. Further, the TGI in the assay with RXF 393 renal is 0.645 µM; in the assay on SNB-75 CNS, 0.598 µM; with SR leukemia, above 100 µM; with SW-620 colon, above 100 µM.
